Measurements: BindingDB's records for PubMed 11546835 (Mcgill University, 2001)
Several values for one entry are separate records, joined by “and”; a condition that tells them apart may be missing. Equal entries are not always repeated. Residues, ends and D or L forms follow the SMILES beside them.

Molecular target: Nociceptin receptor (Mus musculus, UniProt P35377)
Sequence (P35377 whole entry): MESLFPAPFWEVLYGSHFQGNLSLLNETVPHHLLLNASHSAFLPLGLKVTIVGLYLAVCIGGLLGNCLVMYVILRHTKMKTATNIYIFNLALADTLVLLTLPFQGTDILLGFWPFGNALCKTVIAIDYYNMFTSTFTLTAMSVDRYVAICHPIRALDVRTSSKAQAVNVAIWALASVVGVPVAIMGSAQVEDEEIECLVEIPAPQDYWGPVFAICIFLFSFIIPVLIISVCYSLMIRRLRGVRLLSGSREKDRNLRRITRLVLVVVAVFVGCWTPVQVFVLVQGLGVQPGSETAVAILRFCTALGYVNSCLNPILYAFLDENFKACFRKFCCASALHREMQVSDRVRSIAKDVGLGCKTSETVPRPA

`CSCC[C@H](NC(=O)[C@H](Cc1ccccc1)NC(=O)CNC(=O)CNC(=O)[C@@H](N)Cc1ccc(O)cc1)C(=O)O` [2-[(S)-2-(2-{2-[(S)-2-Amino-3-(4-hydroxy-phenyl)-propionylamino]-acetylamino}-acetylamino)-1-oxo-3-phenyl-propylamino]-4-methylsulfanyl-butyric acid] gave a Ki of 1000 nM.

For `Oc1ccc2c3c1OC1c4[nH]c5c(c4CC4(O)CN(CCC314)C(C1CC1)C2)CC1(O)CN2CCC13c1c(ccc(O)c1OC53)CC2C1CC1` (stereo not given) [CAS_105618-26-6], the Ki was 898 nM and 7500 nM.

In the case of `CC(C)C[C@H](NC(=O)[C@H](Cc1ccccc1)NC(=O)CNC(=O)CNC(=O)[C@@H](N)Cc1ccc(O)cc1)C(=O)N[C@@H](CCCNC(=N)N)C(=O)N[C@@H](CCCCN)C(=O)N[C@@H](Cc1ccc(O)cc1)C(=O)N1CCC[C@H]1C(=O)N[C@@H](CCCCN)C(=O)O` [CB0427223] (H-YGGFLRKYPK-OH), the Ki is reported as 192 nM.

In the case of `CC(C)C[C@H](NC(=O)[C@H](Cc1ccccc1)NC(=O)CNC(=O)CNC(=O)[C@@H](N)Cc1ccc(O)cc1)C(=O)N[C@@H](CCCN=C(N)N)C(=O)N[C@@H](CCCN=C(N)N)C(=O)N[C@@H](CCC(N)=O)C(=O)N[C@@H](Cc1ccccc1)C(=O)N[C@@H](CCCCN)C(=O)N[C@H](C(=O)N[C@H](C(=O)N[C@H](C(=O)O)[C@@H](C)O)C(C)C)C(C)C` [Dynorphin B (1-13)], the Ki is reported as 33.9 nM and 247 nM.

In the case of `C[C@H](NC(=O)CNC(=O)[C@@H](NC(=O)[C@H](Cc1ccccc1)NC(=O)CNC(=O)CNC(=O)[C@@H](N)Cc1ccccc1)[C@@H](C)O)C(=O)O` [OFQ/N (1-7)] (H-FGGFTGA-OH), the Ki is reported as 440 nM and 360 nM.
